Measurements as given in ChEMBL document CHEMBL4431308, “Structure and Configuration of Phosphoeleganin, a Protein Tyrosine Phosphatase 1B Inhibitor from the Mediterranean Ascidian Sidnyum elegans” (J Nat Prod, 2016).
The source made the active and inactive calls. The rule behind the calls is not given here.

Tests used:
[1] = molecular target: Dual specificity tyrosine-phosphorylation-regulated kinase 1A (Homo sapiens) (UniProt Q13627); assay: Inhibition of GST-fused human recombinant DYRK1A expressed in Escherichia coli using woodtide as substrate after 30 mins in presence of [gamma-33P]ATP by liquid scintillation counting
DU-145 = assay: Cytotoxicity against human DU145 cells assessed as reduction in cell viability after 24 hrs by MTT assay; format: cell-based; conditions: DU-145, 24 h
MCF7 = assay: Cytotoxicity against human MCF7 cells assessed as reduction in cell viability after 24 hrs by MTT assay; format: cell-based; conditions: MCF7, 24 h
[2] = molecular target: T1, Tyrosine-protein phosphatase non-receptor type 1 (Homo sapiens, UniProt P18031); assay: Inhibition of human recombinant PTP1B catalytic domain expressed in Escherichia coli strain BL21(DE3) using […] as substrate
T1 sequence (P18031 whole entry): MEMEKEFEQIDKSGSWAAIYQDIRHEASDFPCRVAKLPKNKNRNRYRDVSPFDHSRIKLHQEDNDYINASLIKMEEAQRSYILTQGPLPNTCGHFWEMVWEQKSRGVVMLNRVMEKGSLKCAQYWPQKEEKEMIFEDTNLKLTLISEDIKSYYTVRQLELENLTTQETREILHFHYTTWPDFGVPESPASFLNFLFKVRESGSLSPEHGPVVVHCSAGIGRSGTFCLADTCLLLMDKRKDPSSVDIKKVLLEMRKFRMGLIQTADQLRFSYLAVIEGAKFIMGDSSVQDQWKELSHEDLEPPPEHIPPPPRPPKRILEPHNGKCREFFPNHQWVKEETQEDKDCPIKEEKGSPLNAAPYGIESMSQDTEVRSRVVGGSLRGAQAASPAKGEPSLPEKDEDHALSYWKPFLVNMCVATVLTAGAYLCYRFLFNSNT

HaCaT = assay: Cytotoxicity against human HaCaT cells assessed as reduction in cell viability after 24 hrs by MTT assay; format: cell-based

inhibition [1]	IC50 [2]	SMILES	IC50 (DU-145)	IC50 (MCF7)	IC50 (HaCaT)
inactive	11 µM	CCCCCCCCCCCCCC[C@@H](OP(=O)(O)O)[C@@H](O)CC[C@@H](O)[C@@H](O)CC[C@@H](O)CCCCCCC(=O)NCC(=O)O	> 10 µM	> 10 µM	> 10 µM
inactive	24 µM	CCCCCCCCCCCCCC[C@@H](OP(=O)(O)O)[C@@H](O)CCCO	> 10 µM	> 10 µM	> 10 µM
inactive	28 µM	O=C(O)CNC(=O)CCCCCC[C@H](O)CCCO	> 10 µM	> 10 µM	> 10 µM
